From patent US8551721B2, “Bioluminescent detection of cyanohydroxy benzothiazole compounds” (Promega Corporation, priority 2008, dated 2013)

Tests used:
Type in all cases: biochemical
[1] = target: T1, UGT 2B7 (Homo sapiens, UniProt P16662); assay: Assay variability (Z') with UGT 2B7 Supersomes and compound 3138; details: 0.2 mg/mL Supersomes, 30 μM compound 3138, plus or minus 5 mM UDPGA, 12 samples each, 120 mM at 37° C.
T1 construct: purchased BD Gentest; host or cells: insect cells (microsomes)
T1 sequence (P16662 24-529): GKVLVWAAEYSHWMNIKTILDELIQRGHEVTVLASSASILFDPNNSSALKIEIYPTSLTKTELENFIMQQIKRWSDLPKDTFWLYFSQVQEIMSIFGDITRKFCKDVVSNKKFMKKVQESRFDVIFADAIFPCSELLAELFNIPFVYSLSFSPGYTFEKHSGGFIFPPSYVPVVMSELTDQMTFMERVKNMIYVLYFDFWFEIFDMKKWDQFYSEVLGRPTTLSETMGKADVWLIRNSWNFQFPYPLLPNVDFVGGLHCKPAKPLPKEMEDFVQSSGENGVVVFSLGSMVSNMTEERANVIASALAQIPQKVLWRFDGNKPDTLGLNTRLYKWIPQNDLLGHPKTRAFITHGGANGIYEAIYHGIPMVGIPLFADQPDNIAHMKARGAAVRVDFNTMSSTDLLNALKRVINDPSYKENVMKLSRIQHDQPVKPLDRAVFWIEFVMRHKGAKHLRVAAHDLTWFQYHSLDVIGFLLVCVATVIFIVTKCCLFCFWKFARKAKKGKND
Protocol: (§1) Assay variability was determined using the activity data and standard deviations of 12 separate minus UDPGA and plus UDPGA samples. All reactions contained 50 mM TES, pH 7.5, 8 mM MgCl2, 25 μg/mL alamethicin, 0.2 mg/mL UGT 1A1 or 2B7 Supersomes™, and 30 μM compound 3138, plus or minus 5 mM UDPGA. After […] at 37° C., 40 μl, of LDR plus 20 mM D-cysteine was added to each 40 μl, reaction and mixed. After 20 minutes at room temperature, RLU were read on a luminometer.
(§2) Z′ values were calculated using the equation outlined below.
(§3) Robust assay systems typically display Z′ values of 0.5 or higher. The calculated Z′ value for UGT 1A1 was 0.83. The calculated Z′ value for UGT 2B7 under the same conditions was 0.67.

[2] = target: T2, UGT 1A1 (Homo sapiens, UniProt P22309); assay: Assay variability (Z') with UGT 1A1 Supersomes and compound 3138; details: 0.2 mg/mL Supersomes, 30 μM compound 3138, plus or minus 5 mM UDPGA, 12 samples each, 120 mM at 37° C.
T2 construct: purchased BD Gentest; host or cells: insect cells (microsomes)
T2 sequence (P22309 26-533): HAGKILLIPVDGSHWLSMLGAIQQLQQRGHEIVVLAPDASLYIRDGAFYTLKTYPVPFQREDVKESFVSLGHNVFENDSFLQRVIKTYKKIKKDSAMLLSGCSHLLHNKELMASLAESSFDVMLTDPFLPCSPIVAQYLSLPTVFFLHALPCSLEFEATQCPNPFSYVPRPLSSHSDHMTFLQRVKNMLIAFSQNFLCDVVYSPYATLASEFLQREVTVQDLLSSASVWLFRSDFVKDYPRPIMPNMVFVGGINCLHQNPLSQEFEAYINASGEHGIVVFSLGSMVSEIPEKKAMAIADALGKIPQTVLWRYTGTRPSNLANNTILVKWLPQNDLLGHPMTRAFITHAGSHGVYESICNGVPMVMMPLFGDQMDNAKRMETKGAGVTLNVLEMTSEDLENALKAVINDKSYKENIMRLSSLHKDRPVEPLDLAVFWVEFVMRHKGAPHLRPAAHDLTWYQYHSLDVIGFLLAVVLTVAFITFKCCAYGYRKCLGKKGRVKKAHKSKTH
Protocol: as §1, §2, §3

[3] = test system: endogenously expressed UGT isozymes in mammalian microsomes; assay: Utilization of compounds by mammalian microsomes; details: 15 minutes at 37° C., 0.1 mg/mL mammalian microsomes or 0.2 mg/mL Supersomes, 50 μM compound
Protocol: The invention includes a method of determining activity of the uridine 5′-diphospho-glucuronosyltransferase (UDP-glucuronosyltransferase, or UGT) family enzymes in vitro. […] Following the UGT enzyme reaction, an equal volume of P450-Glo Luciferin Detection Reagent (Promega) containing 15-30 mM D-cysteine-HCl.H2O (Sigma) was added and the plate was mixed and incubated at room temperature, typically for 20-30 minutes. P450-Glo Luciferin Detection Reagent can be prepared by dissolving a vial of Promega Luciferin Detection Reagent (Promega Part #V859B) with a vial of Promega P450-Glo Buffer (Promega Part #V865B).
During this incubation, the cysteine reacts with the cyanobenzathiozole substrate to yield a D-luciferin derivative. […] Therefore, activity of the UGT enzyme can be measured by analyzing the difference (lower or no output) in relative light units (RLU) of a sample in which glucuronidation occurs compared to a sample that was run under the same conditions with no added UDPGA cofactor.
Tissue microsomes were obtained from Xenotech LLC or BD Gentest.

Cc1cc(O)cc2sc(C#N)nc12 [compound 3138]
calculated Z′ value for UGT 2B7 [1]: 0.67
calculated Z′ value for UGT 1A1 [2]: 0.83
utilization of compound 3138 by tissue microsomes compared with control 1A1 Supersomes [3]: All tissues tested utilized much more compound 3138 than the control 1A1 Supersomes
